Experiment [1] concerns human tumor cell lines. The following applies: broad range of human tumor cell lines; cited from earlier work.
Experiment [2] concerns human tumor cell lines. The note with it: xenografts of human tumor cell lines; cited from earlier work.
The subject of experiment [3] is CMV pp65 specific CTLs. The experiment in a line: Induction of CMV pp65 specific recall CTLs by PME-CD40L DCs in the presence of mTOR inhibitors. Type of experiment: cell-based, human. The method, then:
(§1) 300 x 10^6 peripheral blood mononuclear cells (PBMCs) were cultured in 30 mL AIM-V media (Thermo Fisher Scientific) in T150 flasks (Corning) for 2 hours to provide for the adherence of monocytes. Non-adherent cells were removed by washing the monolayers twice with cold phosphate buffered saline (PBS) (Cambrex), and the remaining monocytes were cultured in X-VIVO 15 medium (Cambrex) for 5 days, supplemented with 1000 U/mL each of granulocyte macrophage-colony stimulating factor (GM-CSF) (Bayer AG, Leukine® liquid) and IL-4 (R&D Systems). To achieve DC maturation, immature DCs were first cultured on day 5 with 10 ng/mL tumor necrosis factor alpha (TNF-α) (R&D Systems), 1000 µ/mL interferon gamma (IFN-y) (Actimmune), and 1 µg/mL prostaglandin E2 (PGE2) (Sigma). On day 6, phenotypically mature DCs were co-electroporated with RNA encoding CD40L (Argos Lot No. 101606 JSC) at a concentration of 3 ug per million DCs plus either human cytomegalovirus (CMV) pp65 or MART-1 encoding RNAs at 2 µg per million DCs (CMVpp65 RNA-Argos Lot No 071107XF, MART-1-APL RNA-Argos Lot No. 011909HC). Generation of MART-1 RNA and CD40L RNA is described in e.g., DeBenedette et al., J. Immunol. 181(8):5296-5305 (2008).
Electroporated DCs were cultured for an additional 4 hours in X-VIVO 15 media supplemented with 800 µ/mL GM-CSF and 500 µ/mL IL-4 at 1 x 10^6 DCs/mL in low adherence 6-well plates (Costar). After 4 hr, the DCs were harvested by washing with cold PBS and prepared as a frozen formulation at 10 x 10^6 DCs/mL in 20% DMSO and 80% FBS, representing antigen electroporated Post Maturation Electroporated (PME)-CD40L DC preparations.
(§2) PME-CD40L DCs derived from HLA-A2-positive donors and transfected with antigen-encoding mRNAs were co-cultured with purified CD8^+ T cells. All co-cultures were performed in R-10 media. CD8^+ T cells were purified using the CD8+ T Cell Negative Selection Kit II (Miltenyi Biotec) from non-adherent cells harvested from the monocyte adherence step. The CD8^+ cells were mixed with DCs at a 10:1 ratio and incubated in the presence of 0.2 µg/mL IL-2 and 10 ng/mL IL-7 (R&D Systems). DC/T cell co-cultures were re-stimulated on day 7 and supplemented with 20 units/mL IL-2 plus 10 ng/mL IL-7. Induction of primary immune responses to MART-1 and memory/recall responses to CMV pp65 were measured on day 10.
(§3) To identify antigen-specific T cell responses and the phenotype of the antigen specific cells, T cells were harvested on day 10 post-stimulation and incubated with peptide-pulsed T2 target cells at a ratio of 10:1 for 4 hour with Brefeldin A, Monensin (BD Biosciences) and CD107a PE-Cy5. […] After 4 hours of co-culture, responder T cells were stained for 10 minutes with the requisite peptide/pentamer reagent, then washed once and re-stained with CD8-Eflour605, CD45RA-FITC, and CD28-APC. Cells were then washed in PBS and stained with Aquadye (BD Biosciences) for analysis of viability. Labeled cells were then fixed and permeabilized in Fixation/Permeabilization solution (eBiosciences). Cells where then stained with IFN-γ-PECy7, TNFa-AF700 and IL-2-PerCPcy5.5 in permeabilization buffer and resuspended in FACs buffer prior to acquisition.
CD8^+ cytotoxic T lymphocyte (CTL) responses were used to measure the pp65 CMV recall response induced by PME-CD40L DCs in the presence of mTOR inhibitors everolimus and temsirolimus. PME-CD40L DCs encoding CMV pp65 were used to stimulate recall CTL responses in the presence of the mTOR inhibitors under evaluation for compatibility with the CMN-001 product. The expansion of recall CTLs specific for CMV pp65 was determined on day 3 after a second weekly stimulation with PME-CD40L DCs.

Experiment [4] concerns MART-1 specific CTLs. The experiment in a line: MART-1 specific CTL effector function (IFN-γ, TNF-α, IL-2 secretion, CD107a expression). The experiment is classed as cell-based, human. The following applies: at the higher concentrations tested; compared to untreated CTLs. The method, then:
as §2
as §3, with “Cells where then stained with IFN-γ-PECy7, TNFa-AF700 and IL-2-PerCPcy5.5 in permeabilization buffer and resuspended in FACs buffer prior to acquisition.” left out

Experiment [5] has as its system CMV pp65 specific CTLs. The experiment in a line: CMV pp65 specific recall CTL effector function (IFN-γ, TNF-α, IL-2 secretion, CD107a expression). Type of experiment: cell-based, human. How it is done: as §2, §3
To assess the impact mTOR inhibition would have on CTL effector function in vitro, CMV pp65 specific CTLs were assayed for the ability to secret the cytokines IFN-y, TNF-α and IL-2, and express the degranulation marker CD107a, which serves as a surrogate marker to measure lytic activity. Data presented in FIG. 2A and FIG. 2B measures the absolute numbers of CMV […] specific CTLs that secrete IFN-y, TNF-α or IL-2, or express CD107a in response to CMV pp65 peptide pulsed target cells. The absolute numbers of CMV^+ CTLs shown have been corrected for background non-specific responses to display only the antigen specific response for each parameter.

Experiment [6] has as its system MART-1 specific CTLs. The experiment in a line: Priming of MART-1 specific CTLs by PME-CD40L DCs in the presence of mTOR inhibitors. The experiment is classed as cell-based, human. The following applies: in the presence of the mTOR inhibitor, 10 ng/ml to 1 ug/ml. How it is done: as §1, with “Generation of MART-1 RNA and CD40L RNA is described in e.g., DeBenedette et al., J. Immunol. 181(8):5296-5305 (2008).” left out
PME-CD40L DCs derived from HLA-A2-positive donors and transfected with antigen-encoding mRNAs were co-cultured with purified CD8^+ T cells. […] Induction of primary immune responses to MART-1 and memory/recall responses to CMV pp65 were measured on day 10. […]

Setting [7] is: 10 ng/ml, compared to DC/CTL co-cultures without mTOR inhibitor, day 3 after second weekly stimulation.

The structures appear in SMILES notation.

We go through 2 molecules from patent publication US20230061319A1, “METHODS OF TREATING TUMORS” (CoImmune, Inc., priority 2020, published 2023).

For the molecule `CO[C@H]1C[C@@H]2CC[C@@H](C)[C@@](O)(O2)C(=O)C(=O)N2CCCC[C@H]2C(=O)O[C@H]([C@H](C)C[C@@H]2CC[C@@H](OP(C)(C)=O)[C@H](OC)C2)CC(=O)[C@H](C)/C=C(\C)[C@@H](O)[C@@H](OC)C(=O)[C@H](C)C[C@H](C)/C=C/C=C/C=C/1C` [Ridaforolimus, ridaforolimus], in the experiment with human tumor cell lines [1], the “antiproliferative activity in vitro” value was “antiproliferative activity”. In addition, in the experiment with human tumor cell lines [2], the “antiproliferative activity in murine tumor xenograft models” value was “antiproliferative activity”.

For the molecule `CO[C@H]1C[C@@H]2CC[C@@H](C)[C@@](O)(O2)C(=O)C(=O)N2CCCC[C@H]2C(=O)O[C@H]([C@H](C)C[C@@H]2CC[C@@H](OC(=O)C(C)(CO)CO)[C@H](OC)C2)CC(=O)[C@H](C)/C=C(\C)[C@@H](O)[C@@H](OC)C(=O)[C@H](C)C[C@H](C)/C=C/C=C/C=C/1C` [temsirolimus], in the experiment on CMV pp65 specific CTLs [3] (setting [7]), the “numbers of CMV pp65 specific CTLs” value is “increase” and the “percentage of CMV pp65 specific CTLs” value is reported as “increase”. Besides, in the experiment with CMV pp65 specific CTLs [3] (1 µg/ml), the “increase in absolute numbers of CMV+ CTL” value was “evident” and the “increase in percentage of CMV+ CTL” value was “evident”. The “numbers of MART-1+ CTL secreting a cytokine or expressing CD107a” value in the experiment on MART-1 specific CTLs [4] is recorded as “increased”. The “numbers of CMV+ CTL secreting a cytokine or expressing CD107a” value with CMV pp65 specific CTLs [5] (10 ng/ml, compared to untreated CTLs) is reported as “increased”. For the same molecule, the “increase in effector function of CMV+ CTL” value in the experiment with CMV pp65 specific CTLs [5] (1 µg/ml) was “maintained”. In addition, the “priming of MART-1 specific CTLs by PME-CD40L DC” value in the experiment on MART-1 specific CTLs [6] is on record as “able to prime”.
